Assay results as given in US11666539B2, “Synthetic lipid-like materials for brain delivery” (Trustees of Tufts College, priority 2020, dated 2023).

Tested on: flox-stop-flox tdTomato construct
Assay: (-27)GFP-Cre protein delivery, tdTomato expression in Ai14 mouse brain
Format: in vivo
Details: (-27)GFP-Cre/LNP weight ratio 1/4; four i.v. injections of 50 μg protein; brain slices, fluorescence imaging
Source text: GFP fused Cre recombinase was chosen as a model protein for the study, using the Ail4 model mouse line (FIG. 4A). The Ail4 mouse line contains a flox-stop-flox tdTomato construct. The successful intracellular delivery of Cre protein into the cells of Ail4 mouse leads to the gene recombination and turns on the tdTomato expression which can be directly visualized as red fluorescence signal without additional staining. Here, (−27)GFP-Cre protein was used. NT1-O14B LNPs doped with PBA-Q76-O16B was chosen, as these nanoparticles could successfully deliver (−27)GFP-Cre. The weight ratio of NT1-O14B and PBA-Q76-O16B was fixed at 3:7, based on the results observed from the AmB and ASO delivery. Lipid formulations were prepared using the approaches described for the formulation for ASO delivery. Briefly, the (−27)GFP-Cre protein was mixed with LNPs at a weight ratio of 1/4 and incubated the solution for 15 min at room temperature before intravenous injection. Mice were injected four times with a dose of 50 μg protein per injection. Five days after the last injection, the mice were sacrificed and brain tissues were collected, fixed, and dehydrated. Then the tissues were cryo-sectioned into […] slices and counter-stained with DAPI for fluorescence imaging.

CCCCCCCCCCCCSSCCOC(=O)CC[N+](CCC(=O)OCCSSCCCCCCCCCCCC)(CCN1CCCC1)Cc1ccc(B(O)O)cc1 [PBA-Q76-O16B]
tdTomato expression in the brain: no tdTomato expression
